Reference: US20250296942A1, “Phosphonate-Based Coordination Complexes and Methods of Preparation and Use Thereof” (University of Puerto Rico, priority 2021, published 2025)

Assays:
[1] = test system: human breast cancer MCF-7 cell line; assay: AlamarBlue cytotoxicity, BPBPA series, MCF-7; format: cell-based
Experimental: Cell culture methods. MCF-7, MDA-MB-231, and hFOB 1.19 cell lines were incubated employing DMEM (37° C.) and DMEM: F12 (34° C.) medium, respectively, in a 5% CO2. Cell lines were supplemented using 10% FBS and 1% Pen-Strep and medium exchange was performed twice a week. Cell passages were carried out at 80% confluency.
Cell-based assays. Cell lines were seeded in 96 well plates at a density of 5×10^3 cells/mL, cells were incubated for 24 h before treatment. Both cell lines were treated with 100 μL of BPBPA (0-400 μM), LET (0-200 μM), unloaded and loaded nano-Ca@BPBPA (0-50 μM). All cell-based assays were performed for 24, 48, and 72 h of treatment. Control groups were treated with media (DMEM or DMEM: F12) supplemented with 1% Pen-Strep. Then, the media was removed and replaced with 100 μL of 10% AlamarBlue® solution. The 96 well plates were incubated for 4 h before measurements. Then, the fluorescence was assessed at 560 nm of excitation and λmax 590 nm of emission. The cell viability (%) was evaluated by contrasting the percentage of live cells of the control groups with the cells treated with BPBPA, LET, unloaded and loaded nano-Ca@BPBPA. The half-maximal inhibitory concentration (IC50) was determined for BPBPA and letrozole employing the dose-response curves (% cell live vs. concentration). The relative cell live (% RCL) was assessed for the unloaded and loaded nano-Ca@BPBPA, utilizing LET as a control group. The IC50 and % RCL were plotted using the GraphPad Prism software vs. 9.3.0.
The cytotoxicity of BPBPA (control), LET (control), nano-Ca@BPBPA (control), and drug-loaded nano-Ca@BPBPA (experimental) was investigated employing the human breast cancer, MCF-7 and MDA-MB-231, and the human osteoblast, hFOB 1.19, cell lines. The human MCF-7 cell line represents an ER-positive breast cancer model with estrogen, progesterone, and glucocorticoid receptors.^1 While, the human MDA-MB-231 cells correspond to a model of ER-negative breast cancer. Both selected cancer cell lines can be implicated in the development and progress of bone metastases in patients.^40,41 The human fetal hFOB 1.19 cells represent a homogeneous osteoblast-like (non-cancerous) model commonly employed to assess osteoblast differentiation.^42 The cytotoxicity of these materials was evaluated by determining the IC50 and % RCL. […] Similar results were found for MDA-MB-231 and hFOB 1.19 cell lines treated with LET (IC50 >200 μM) at the same time points (Supporting Information).
Cell culture methods. MCF-7 and MDA-MB-231 were incubated employing DMEM media at 37° C. in 5% CO2. The hFOB 1.19 cell lines were incubated using DMEM: F12 at 34° C. in 5% CO2. Cell lines were supplemented using 10% FBS and 1% Pen-Strep. The media was exchanged twice per week. Cell passages were carried out at 80% confluency.
Seeding. Cell lines were seeded in 96 well plates at a density of […] cells/mL; cells were incubated for 24 h before each treatment.
Treatment. Cell lines were treated with 100 μL of BPBPA (0-400 μM), LET (0-200 μM), unloaded and loaded nano-Ca@BPBPA (0.5-50 μM). Control groups were treated with media (DMEM or DMEM: F12) supplemented with 1% Pen-Strep. All cell-based assays were performed after 24, 48, and 72 h of treatment and in triplicate.
AlamarBlue@assay. To determine the cell viability, the media was removed and replaced with 100 μL of 10% AlamarBlue® solution. The 96 well plates were incubated for 4 h before measurements. Then, the fluorescence was assessed at 560 nm of excitation and λmax 590 nm of emission.

[2] = Release of letrozole from drug-loaded 2,2′-BPBPA-Ca in FaSSGF; format: physicochemical; conditions: 37° C., 150 rpm, duplicate
Experimental: LET release curve from 2,2′-BPBPA-Ca. The release curve of LET from 2,2′-BPBPA-Ca was assessed in FaSSGF. A calibration curve for LET in FaSSGF was previously prepared; the lambda max (λmax) was detected at 238 nm (Supporting Information). About 100 mL of FaSSGF were placed in a 250-mL beaker and left in constant stirring at 37° C. (150 rpm).
(§1) Subsequently, […] of powdered drug-loaded 2,2′-BPBPA-Ca (experimental) were placed into the FaSSGF solution. After each time point (0, 1, 3, 6, 24, 48, and 72 h), an aliquot (1 mL) was taken out and diluted in a 5 mL volumetric flask. An aliquot was taken out before adding the drug-loaded material to record the first time point (0 h). Then, the absorbance was measured at 238 nm to determine the amount (%) of LET release from the 2,2′-BPBPA-Ca.
TGA thermographs for these drug-loaded materials were collected to determine the amount of LET loaded into the channels of 2,2′-BPBPA and nano-Ca@2,2′-BPBPA (20-21%, FIG. 8B). Furthermore, the release capacity of these drug-loaded BPCCs was assessed in physiological conditions (FaSSGF, pH=1.60) at 37° C. The LET release from 2,2′-BPBPA-Ca was determined by measuring the absorption of the supernatant at the lambda max (λmax=[…]) and quantifying the increase in the LET concentration over time.
as §1, with “Release experiment. […] About 100 mL of FaSSGF were placed in a 250-mL beaker and left in constant stirring at 37° C. (150 rpm). Subsequently,” for “Subsequently,”, “2,2′-BPBPA-Ca. The release curve of LET (control) in FaSSGF was used for comparison.” for “2,2′-BPBPA-Ca.”

N#Cc1ccc(C(c2ccc(C#N)cc2)n2cncn2)cc1 [LET, letrozole]
% RCL ([1]; 0.5 μM, 24 h): ~100%
% RCL ([1]; 0.5 μM, 48 h): ~100%
% RCL ([1]; 0.5 μM, 72 h): 88±5%
% RCL ([1]; 1.6 μM, 72 h): 81%
% RCL ([1]; 3.1 μM, 24 h): 99±2%
% RCL ([1]; 3.1 μM, 48 h): 86±3%
% RCL ([1]; 3.1 μM, 72 h): 78±1%
% RCL ([1]; 6.3 μM, 24 h): 99±1%
% RCL ([1]; 6.3 μM, 72 h): 75±3%
% RCL ([1]; 12.5 μM, 72 h): 70±1%
IC50 ([1]; Homo sapiens, MCF7, 72 h): ~20 µM
Percentage (%) of letrozole (LET) released, Mean ([2]; 1 h): 65%
Percentage (%) of letrozole (LET) released, Mean ([2]; 3 h): 72%
Percentage (%) of letrozole (LET) released, Mean ([2]; 6 h): 75%
Percentage (%) of letrozole (LET) released, Mean ([2]; 24 h): 93%
Percentage (%) of letrozole (LET) released, Mean ([2]; 48 h): 94%
Percentage (%) of letrozole (LET) released, Mean ([2]; 72 h): 94%
